# Test results published in patent publication US5556909A, “Substituted 2-arylcarbonyloxymethyl-1,2,5-thiadiazolidin-3-one 1,1-dioxide derivatives and compositions and method of use thereof” (Sanofi Winthrop Inc., priority 1994, dated 1996).
# Where a name gives a salt, the structure may show the parent alone.
# Biological target: T1, human leukocyte elastase (Homo sapiens, UniProt P08246)
# T1 sequence (P08246 30-267): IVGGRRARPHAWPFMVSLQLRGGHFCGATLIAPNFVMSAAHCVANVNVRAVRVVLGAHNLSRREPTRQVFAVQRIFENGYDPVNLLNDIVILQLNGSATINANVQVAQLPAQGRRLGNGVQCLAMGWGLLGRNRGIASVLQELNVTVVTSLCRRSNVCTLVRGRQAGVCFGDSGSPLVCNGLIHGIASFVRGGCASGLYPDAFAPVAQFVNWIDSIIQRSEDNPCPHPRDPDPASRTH
# Test: Human leukocyte elastase inhibitory activity (substrate MeOSuc-Ala-Ala-Pro-Val-pNA, microtiter plate progress curves)
# Assay type: biochemical
# Settings: HLE, pH 7.8, 25° C., 500 mM NaCl
# Protocol: The test compound (inhibitor) is dissolved in DMSO in a vial to produce an inhibitor stock solution which has a concentration in the range of 200-1000 μM. The inhibitor stock solution is diluted (1:4, 1:16 and 1:64) into assay vials (vials 1, 2 and 3 respectively) containing 2.4 mL of buffer solution (50 mM N- [2-hydroxyethyl ] piperazine-N'-[2-ethanesulfonic acid]/NaOH, 500 mM NaCl, pH 7.8 at 25° C.) and DMSO is added so that the total volume in each vial is 3.2 mL. 70 μL, 50 μL, 35 μL and 25 μL of inhibitor from assay vial 1 is placed into the first four wells of a 96-well microtiter plate and each well is made up to 90 μL total volume with the addition of a 25% DMSO/buffer solution. The inhibitor from assay vials 2 and 3 is processed in a similar manner and placed in wells 5-12 respectively to afford a total of 12 different inhibitor concentrations. Four wells (wells 13-16) containing 90 μL of the 25% DMSO/buffer solution but no inhibitor are also run simultaneously with the inhibited wells as a control. 150 μL of substrate solution (prepared by the addition of 500 μL of the human leukocyte elastase (HLE) substrate MeOSuc-Ala-Ala-Pro-Val-pNA (18.7 mM in DMSO) to 19.5 mL of buffer solution) is then added simultaneously into each of the 16 wells and the solution in each well was thoroughly mixed.
# The 96-well microtiter plate is placed into a Microplate Reader #89815A spectrophotometer and 110 μL of the enzyme solution (prepared as follows: a mixture of 20 mL of buffer solution and 20 mg of bovine serum albumen is gently vortexed in a scintillation vial and 5 μL HLE stock solution (1 mg/mL dissolved in deionized water) is added) is added simultaneously to each of the 16 wells. Each of the solutions in the wells is throughly mixed and then the time-dependent absorbance data is collected at an absorbance of 410 nm until the assay is complete. It should be noted that although this assay method can be done manually, it is preferred to perform the assay robotically using a Hewlett Packard MicroAssay System Robot.
# A plot of the absorbance versus time data thus obtained affords progress curves the final slope of which is equal to the final steady-state velocities (VF). Using the program ENZFITTER (Elsevier software), the progress curves for the four control assays ([I]=0) are fit by linear regression to yield the enzyme reaction velocity values in the absences of inhibitor (Vo) which are averaged to produce a single fixed value. The inhibition constant Ki (nM) is then obtained from a plot of [formula] which affords a linear plot wherein: [formula] and [S] is the concentration of the substrate and Km is the Michaelis constant.
# Table II summarizes the results obtained from the testing of representative compounds of the invention for human leukocyte elastase inhibitory activity.
row,Compound,Ki
1,CC(C)CCC1C(=O)N(COC(=O)c2c(Cl)cccc2Cl)S(=O)(=O)N1C (stereo not shown) [8(i)],0.06 nM
2,"CC(C)CCC1C(=O)N(COC(=O)c2c(Cl)ccc(OCCN3CCOCC3)c2Cl)S(=O)(=O)N1C (stereo not shown) [10(b), 2-(2,6-dichloro-3-[2-(4-morpholino)ethoxy]phenyl-carbonyloxymethyl)-4-(3-methylbutyl)-5-methyl-1,2,5-thiadiazolidin-3-one 1,1-dioxide]",0.2 nM
3,"CCCC1(C)C(=O)N(COC(=O)c2c(Cl)cccc2Cl)S(=O)(=O)N1C (stereo not shown) [6(k), 2-(2,6-dichlorophenylcarbonyloxymethyl)-4-methyl-4-propyl-5-methyl-1,2,5-thiadiazolidin-3-one 1,1-dioxide]",120 nM
4,"CCCC1NS(=O)(=O)N(COC(=O)c2c(Cl)cccc2Cl)C1=O (stereo not shown) [1(f), 2-(2,6-dichlorophenylcarbonyloxymethyl)-4-propyl-1,2,5-thiadiazolidin-3-one 1,1-dioxide]",12 nM
5,"CC(C)C1NS(=O)(=O)N(COC(=O)c2c(Cl)cccc2Cl)C1=O (stereo not shown) [2(f), 2-(2,6-dichlorophenylcarbonyloxymethyl)-4-isopropyl-1,2,5-thiadiazolidin-3-one 1,1-dioxide]",350 nM
6,"CC(C)C1C(=O)N(COC(=O)c2c(Cl)cccc2Cl)S(=O)(=O)N1C (stereo not shown) [4(f), 2-(2,6-dichlorophenylcarbonyloxymethyl)-4-isopropyl-5-methyl-1,2,5-thiadiazolidin-3-one 1,1-dioxide]",25 nM
7,O=C(OCN1C(=O)C2C3CCC(C3)N2S1(=O)=O)c1c(Cl)cccc1Cl (stereo not shown) [15(i)],3700 nM
8,"O=C(OCN1C(=O)C2CCCCN2S1(=O)=O)c1c(Cl)cccc1Cl (stereo not shown) [13(f), 2-(2,6-dichlorophenylcarbonyloxymethyl)-1,2,5-thiadiazolo [2,3-a]3,3a,4,5,6,7-hexahydropyridine-3-one 1:1-dioxide]",22 nM
9,"CN1C(Cc2ccccc2)C(=O)N(COC(=O)c2c(Cl)cccc2Cl)S1(=O)=O (stereo not shown) [11(g), 2-(2,6-dichloro-phenylcarbonyloxymethyl)-4-phenylmethyl-5-methyl-1,2,5-thiadiazolidin-3-one 1,1-dioxide]",0.62 nM
10,"CCCC1CCCN2C1C(=O)N(COC(=O)c1c(Cl)cccc1Cl)S2(=O)=O (stereo not shown) [16(j), 2-(2,6-dichlorophenylcarbonyloxymethyl)-4-propyl-1,2,5-thiadiazolo [2,3-a]3,3a, 4,5,6,7-hexahydropyridine-3-one 1,1-dioxide]",9.6 nM
11,"CC(C)CCC1C(=O)N(COC(=O)c2c(Cl)ccc(OCCN3CCCC3)c2Cl)S(=O)(=O)N1C (stereo not shown) [9(c), 2-(2,6-dichloro-3-(2-pyrrolidinoethoxy)phenylcarbonyloxymethyl)-4-(3-methylbutyl)-5-methyl-1,2,5-thiadiazolidin-3-one 1,1-dioxide hydrochloride]",0.26 nM
12,"CCCC1C(=O)N(COC(=O)c2c(Cl)ccc(OCCN3CCOCC3)c2Cl)S(=O)(=O)N1CC (stereo not shown) [Example 12, 2-(2,6-dichloro-3-[2-(4-morpholino]ethoxy]-phenylcarbonyloxymethyl)-4-propyl-5-ethyl-1,2,5-thiadiazolidin-3-one 1,1-dioxide methanesulfonate]",0.45 nM
13,"CCCC1C(=O)N(COC(=O)c2c(Cl)cccc2Cl)S(=O)(=O)N1CC (stereo not shown) [5(e), 2-(2,6-dichloro-phenylcarbonyloxymethyl)-4-propyl-5-ethyl-1,2,5-thiadiazolidin-3-one 1,1-dioxide]",0.5 nM
14,"CN1C(CCC(C)(C)Cl)C(=O)N(COC(=O)c2c(Cl)cccc2Cl)S1(=O)=O (stereo not shown) [7(h), 2-(2,6-dichlorophenylcarbonyloxymethyl) -4-(3-methyl-3-chlorobutyl)-5-methyl-1,2,5-thiadiazolidin-3-one 1,1-dioxide]",4.4 nM
15,"CCCC1C(=O)N(COC(=O)c2c(Cl)cccc2Cl)S(=O)(=O)N1C (stereo not shown) [3(i), 2-(2,6-dichlorophenylcarbonyloxy-methyl)-4-propyl-5-methyl-1,2,5-thiadiazolidin-3-one 1,1-dioxide]",0.11 nM
16,"O=C(OCN1C(=O)C2CCCN2S1(=O)=O)c1c(Cl)cccc1Cl (stereo not shown) [14(f), 2-(2,6-dichlorophenylcarbonyloxymethyl) tetrahydropyrrolo[1,2-b]-1,2,5-thiadiazol-3(2H)-one 1,1-dioxide]",170 nM
